According to ChEMBL document CHEMBL3046469, “Fungicidal Activities of 2-(Substituted Phenoxymethyl)phenyl-2-methoxyiminoacaetamide Derivatives” (1998):

Assays:
Assay type in all cases: functional
Thanatephorus cucumeris [1] = experiment: Fungicidal activity against Thanatephorus cucumeris assessed as rice sheath blight disease control at 7.8 ppm foliar application for 24 hr before inoculation at 26 +/- 2 degC measured after 5 days by preventive manner
Pyricularia oryzae [2] = experiment: Fungicidal activity against Magnaporthe oryzae assessed as rice blast disease control at 2 ppm foliar application for 24 hr after inoculation at 27 +/- 2 degC measured after 5 days by curative manner
Pyricularia oryzae [3] = experiment: Fungicidal activity against Magnaporthe oryzae assessed as rice blast disease control at 2 ppm foliar application for 24 hr before inoculation at 27 +/- 2 degC measured after 5 days by preventive manner
Podosphaera fuliginea [4] = experiment: Fungicidal activity against Podosphaera fuliginea assessed as cucumber powdery mildew control at 2 ppm foliar application 24 hr before inoculation at 23 +/- 2 degC by preventive manner
[5] = system: Blumeria graminis f. sp. tritici; experiment: Fungicidal activity against Blumeria graminis f. sp. tritici assessed as wheat powdery mildew disease control at 2 ppm foliar application for 48 hr after inoculation by curative manner
Botrytis cinerea [6] = experiment: Fungicidal activity against Botryotinia fuckeliana assessed as cucumber gray mold disease control at 7.8 ppm foliar application […] at 22 +/- 2 degC by preventive manner
Podosphaera fuliginea [7] = experiment: Fungicidal activity against Podosphaera fuliginea assessed as cucumber powdery mildew control at 2 ppm foliar application 24 hr after inoculation at 23 +/- 2 degC by curative manner
[8] = system: Blumeria graminis f. sp. tritici; experiment: Fungicidal activity against Blumeria graminis f. sp. tritici assessed as wheat powdery mildew disease control at 2 ppm foliar application for 48 hr before inoculation by preventive manner
[9] = system: Pseudoperonospora cubensis; experiment: Fungicidal activity against Pseudoperonospora cubensis assessed as cucumber downy mildew disease control at 7.8 ppm foliar application 24 hr before inoculation onto the abaxial(untreated) surface of leaf by preventive manner
[10] = system: Pseudoperonospora cubensis; experiment: Fungicidal activity against Pseudoperonospora cubensis assessed as cucumber downy mildew disease control at 2 ppm foliar application 24 hr before inoculation onto the adaxial(treated) surface of leaf by preventive manner
Botrytis cinerea [11] = experiment: Fungicidal activity against Botryotinia fuckeliana assessed as cucumber gray mold disease control at 2 ppm foliar application […] at 22 +/- 2 degC by curative manner
Pyricularia oryzae [12] = experiment: Fungicidal activity against Magnaporthe oryzae assessed as rice blast disease control at 31.3 ppm foliar application for 24 hr before inoculation at 27 +/- 2 degC measured after 5 days by preventive manner
Thanatephorus cucumeris [13] = experiment: Fungicidal activity against Thanatephorus cucumeris assessed as rice sheath blight disease control at 31.3 ppm foliar application for 24 hr before inoculation at 26 +/- 2 degC measured after 5 days by preventive manner
[14] = system: Pseudoperonospora cubensis; experiment: Fungicidal activity against Pseudoperonospora cubensis assessed as cucumber downy mildew disease control at 2 ppm foliar application 24 hr before inoculation onto the abaxial(untreated) surface of leaf by preventive manner
Pyricularia oryzae [15] = experiment: Fungicidal activity against Magnaporthe oryzae assessed as rice blast disease control at 125 ppm foliar application for 24 hr after inoculation at 27 +/- 2 degC measured after 5 days by curative manner
Podosphaera fuliginea [16] = experiment: Fungicidal activity against Podosphaera fuliginea assessed as cucumber powdery mildew control at 7.8 ppm foliar application 24 hr before inoculation at 23 +/- 2 degC by preventive manner
[17] = system: Blumeria graminis f. sp. tritici; experiment: Fungicidal activity against Blumeria graminis f. sp. tritici assessed as wheat powdery mildew disease control at 7.8 ppm foliar application 48 hr after inoculation by curative manner
Podosphaera fuliginea [18] = experiment: Fungicidal activity against Podosphaera fuliginea assessed as cucumber powdery mildew control at 7.8 ppm foliar application 24 hr after inoculation at 23 +/- 2 degC by curative manner
Botrytis cinerea [19] = experiment: Fungicidal activity against Botryotinia fuckeliana assessed as cucumber gray mold disease control at 7.8 ppm foliar application […] at 22 +/- 2 degC by curative manner
Pyricularia oryzae [20] = experiment: Fungicidal activity against Magnaporthe oryzae assessed as rice blast disease control at 31.3 ppm foliar application for 24 hr after inoculation at 27 +/- 2 degC measured after 5 days by curative manner
Podosphaera fuliginea [21] = experiment: Fungicidal activity against Podosphaera fuliginea assessed as cucumber powdery mildew control at 31.3 ppm foliar application 24 hr before inoculation at 23 +/- 2 degC by preventive manner
[22] = system: Blumeria graminis f. sp. tritici; experiment: Fungicidal activity against Blumeria graminis f. sp. tritici assessed as wheat powdery mildew disease control at 31.3 ppm foliar application for 48 hr after inoculation by curative manner
Podosphaera fuliginea [23] = experiment: Fungicidal activity against Podosphaera fuliginea assessed as cucumber powdery mildew control at 31.3 ppm foliar application 24 hr after inoculation at 23 +/- 2 degC by curative manner
[24] = system: Blumeria graminis f. sp. tritici; experiment: Fungicidal activity against Blumeria graminis f. sp. tritici assessed as wheat powdery mildew disease control at 7.8 ppm foliar application 48 24 hr before inoculation by preventive manner
Thanatephorus cucumeris [25] = experiment: Fungicidal activity against Thanatephorus cucumeris assessed as rice sheath blight disease control at 125 ppm foliar application for 24 hr before inoculation at 26 +/- 2 degC measured after 5 days by preventive manner
[26] = system: Pseudoperonospora cubensis; experiment: Fungicidal activity against Pseudoperonospora cubensis assessed as cucumber downy mildew disease control at 31.3 ppm foliar application 24 hr before inoculation onto the abaxial(untreated) surface of leaf by preventive manner
[27] = system: Pseudoperonospora cubensis; experiment: Fungicidal activity against Pseudoperonospora cubensis assessed as cucumber downy mildew disease control at 7.8 ppm foliar application 24 hr before inoculation onto the adaxial(treated) surface of leaf by preventive manner
Botrytis cinerea [28] = experiment: Fungicidal activity against Botryotinia fuckeliana assessed as cucumber gray mold disease control at 31.3 ppm foliar application […] at 22 +/- 2 degC by preventive manner
Pyricularia oryzae [29] = experiment: Fungicidal activity against Magnaporthe oryzae assessed as rice blast disease control at 7.8 ppm foliar application for 24 hr after inoculation at 27 +/- 2 degC measured after 5 days by curative manner
Pyricularia oryzae [30] = experiment: Fungicidal activity against Magnaporthe oryzae assessed as rice blast disease control at 7.8 ppm foliar application for 24 hr before inoculation at 27 +/- 2 degC measured after 5 days by preventive manner
[31] = system: Pseudoperonospora cubensis; experiment: Fungicidal activity against Pseudoperonospora cubensis assessed as cucumber downy mildew disease control at 125 ppm foliar application 24 hr before inoculation onto the abaxial(untreated) surface of leaf by preventive manner

SMILES | Activity (Podosphaera fuliginea [4]) [%] | Activity (Botrytis cinerea [6]) [%] | Activity (Podosphaera fuliginea [7]) [%] | Activity [8] [%] | Activity [10] [%] | Activity (Pyricularia oryzae [12]) [%] | Activity [17] [%] | Activity (Podosphaera fuliginea [18]) [%] | Activity (Botrytis cinerea [19]) [%] | Activity (Thanatephorus cucumeris [25]) [%] | Activity (Pyricularia oryzae [29]) [%] | other results
CNC(=O)/C(=N/OC)c1ccccc1COc1cc(C)ccc1C | 90 | 90 | 90 | 90 | 90 | – | – | – | – | – | – | Activity (Thanatephorus cucumeris [1]): 90%; Activity (Pyricularia oryzae [2]): 90%; Activity (Pyricularia oryzae [3]): 90%; Activity [5]: 90%; Activity [9]: 90%; Activity (Botrytis cinerea [11]): 90%
CNC(=O)/C(=N/OC)c1ccccc1COc1cc(Cl)ccc1Cl | 90 | 90 | – | 90 | 90 | 90 | – | – | – | – | – | Activity (Thanatephorus cucumeris [13]): 90%; Activity [14]: 90%
CNC(=O)/C(=N\OC)c1ccccc1COc1cc(C)ccc1C | – | 90 | – | 90 | – | 90 | 90 | 90 | 90 | – | – | Activity (Pyricularia oryzae [15]): 90%; Activity (Podosphaera fuliginea [16]): 90%
CNC(=O)/C(=N/OC)c1ccccc1COc1ccccc1 | – | – | – | – | – | 90 | – | – | 90 | 90 | – | Activity (Pyricularia oryzae [20]): 90%; Activity (Podosphaera fuliginea [21]): 90%; Activity [22]: 90%; Activity (Podosphaera fuliginea [23]): 90%; Activity [24]: 90%; Activity [26]: 90%; Activity [27]: 90%; Activity (Botrytis cinerea [28]): 90%
CNC(=O)/C(=N/OC)c1ccccc1COc1cccc(OC(C)C)c1 | – | 90 | – | 90 | – | – | 90 | 90 | 90 | 90 | 90 | Activity (Pyricularia oryzae [30]): 90%; Activity (Podosphaera fuliginea [16]): 90%; Activity [26]: 90%; Activity [27]: 90%
CNC(=O)/C(=N/OC)c1ccccc1COc1ccc(Cl)cc1 | 90 | 90 | 90 | 90 | 90 | 90 | – | – | – | <90 | 90 | Activity [5]: 90%; Activity [9]: 90%; Activity (Botrytis cinerea [11]): 90%
CO/N=C(/C(N)=O)c1ccccc1COc1cc(C)ccc1C | 90 | – | – | – | – | 90 | – | 90 | 90 | – | 90 | Activity (Botrytis cinerea [28]): 90%
CNC(=O)/C(=N/OC)c1ccccc1COc1ccc(-c2ccccc2)cc1 | 90 | 90 | 90 | 90 | 90 | – | 90 | – | 90 | – | – | Activity (Pyricularia oryzae [2]): 90%; Activity (Pyricularia oryzae [3]): 90%; Activity (Thanatephorus cucumeris [13]): 90%; Activity [31]: 90%
